Columns and labels:
E coli E1 = assay: MIC, veterinary bacteria; assay type: cell-based; conditions: veterinary bacteria (Table 2)
M. dispar NCTC 10125 = assay: MIC, anti-mycoplasmal, Friis broth solidified with 0.9% agarose; assay type: cell-based; conditions: inoculum 10^3 to 10^5 C.F.U., 6 days incubation at 37°C
[1] = system: M. suipneumoniae J2206/183b; assay: as above; assay type: cell-based; conditions: inoculum 10^3 to 10^5 C.F.U., 6 days incubation at 37°C
[2] = system: Haemophilus influenzae Wy21; assay: MIC, human bacteria, serial dilution in nutrient agar; assay type: cell-based; conditions: nutrient agar containing 5% 'chocolated' horse blood
M. bovis NCTC 10131 = assay: microbe, parasite or virus in culture; assay type: cell-based; conditions: M. bovis NCTC 10131; inoculum 10^3 to 10^5 C.F.U., 6 days incubation at 37°C
[3] = system: Corynebacterium pyogenes CY1; assay: MIC, veterinary bacteria; assay type: cell-based; conditions: veterinary bacteria (Table 2)
M. hyorhinis ATCC 25021 = assay: MIC, anti-mycoplasmal, Friis broth solidified with 0.9% agarose; assay type: cell-based; conditions: inoculum 10^3 to 10^5 C.F.U., 6 days incubation at 37°C
M. suipneumoniae HK(2) = assay: as above; assay type: cell-based; conditions: inoculum 10^3 to 10^5 C.F.U., 6 days incubation at 37°C
[4] = system: M. bovigenitalium ATCC 14173; assay: as above; assay type: cell-based; conditions: inoculum 10^3 to 10^5 C.F.U., 6 days incubation at 37°C
[5] = system: Pasteurella multocida 1633; assay: MIC, human bacteria, serial dilution in nutrient agar; assay type: cell-based; conditions: nutrient agar containing 5% 'chocolated' horse blood
P mirabilis 889 = assay: as above; assay type: cell-based; conditions: nutrient agar containing 5% 'chocolated' horse blood
Staph aureus Russell = assay: as above; assay type: cell-based; conditions: nutrient agar containing 5% 'chocolated' horse blood
pig serum = assay: Serum binding by ultrafiltration; assay type: in vitro ADME; conditions: compounds at 8 mcg/ml, microbiological assay (B. subtilis ATCC 6633)
Method: Serum binding was assessed by ultrafiltration of procine serum containing compounds at 8 mcg/ml, and through an Amicon CF50A ultrafiltration cone. Separation of ultrafiltrate was achieved by centrifugation.

Strep pyogenes A 64/848 = assay: MIC, human bacteria, serial dilution in nutrient agar; assay type: cell-based; conditions: nutrient agar containing 5% 'chocolated' horse blood
Bord bronchisptica BO9 = assay: MIC, veterinary bacteria; assay type: cell-based; conditions: veterinary bacteria (Table 2)
[6] = system: M. suipneumoniae PW/C/210; assay: MIC, anti-mycoplasmal, Friis broth solidified with 0.9% agarose; assay type: cell-based; conditions: inoculum 10^3 to 10^5 C.F.U., 6 days incubation at 37°C
Bacillus subtilis 6633 = assay: MIC, human bacteria, serial dilution in nutrient agar; assay type: cell-based; conditions: nutrient agar containing 5% 'chocolated' horse blood
[7] = system: Staph aureus 152 (pen sens); assay: MIC, veterinary bacteria; assay type: cell-based; conditions: veterinary bacteria (Table 2)
Strep uberis SPU1 = assay: MIC, veterinary bacteria; assay type: cell-based; conditions: veterinary bacteria (Table 2)
S typhimurium S18 = assay: MIC, veterinary bacteria; assay type: cell-based; conditions: veterinary bacteria (Table 2)
Staph aureus Oxford [8] = assay: MIC, human bacteria, serial dilution in nutrient agar; assay type: cell-based; conditions: nutrient agar containing 5% 'chocolated' horse blood
Past multocida PA2 = assay: MIC, veterinary bacteria; assay type: cell-based; conditions: veterinary bacteria (Table 2)
Strep faecalis I = assay: MIC, human bacteria, serial dilution in nutrient agar; assay type: cell-based; conditions: nutrient agar containing 5% 'chocolated' horse blood
S dublin S7 = assay: MIC, veterinary bacteria; assay type: cell-based; conditions: veterinary bacteria (Table 2)
E coli ESS = assay: MIC, human bacteria, serial dilution in nutrient agar; assay type: cell-based; conditions: nutrient agar containing 5% 'chocolated' horse blood
[9] = system: Neisseria catarrhalis 1502; assay: as above; assay type: cell-based; conditions: Neisseria catarrhalis 1502 (footnote a); nutrient agar containing 5% 'chocolated' horse blood
[10] = system: Staph aureus B4 (pen resis); assay: MIC, veterinary bacteria; assay type: cell-based; conditions: veterinary bacteria (Table 2)
Past multocida PA1 = assay: MIC, veterinary bacteria; assay type: cell-based; conditions: veterinary bacteria (Table 2)
M. suipneumoniae NB12 = assay: MIC, anti-mycoplasmal, Friis broth solidified with 0.9% agarose; assay type: cell-based; conditions: inoculum 10^3 to 10^5 C.F.U., 6 days incubation at 37°C
E coli NCTC 10418 [11] = assay: MIC, human bacteria, serial dilution in nutrient agar; assay type: cell-based; conditions: nutrient agar containing 5% 'chocolated' horse blood
[12] = system: M. suipneumoniae ATCC 25095; assay: MIC, anti-mycoplasmal, Friis broth solidified with 0.9% agarose; assay type: cell-based; conditions: inoculum 10^3 to 10^5 C.F.U., 6 days incubation at 37°C
Past Haemolytica PA5 = assay: MIC, veterinary bacteria; assay type: cell-based; conditions: veterinary bacteria (Table 2)
M. suipneumoniae UCD 1 = assay: MIC, anti-mycoplasmal, Friis broth solidified with 0.9% agarose; assay type: cell-based; conditions: inoculum 10^3 to 10^5 C.F.U., 6 days incubation at 37°C
Strep pyogenes B 2788 = assay: MIC, human bacteria, serial dilution in nutrient agar; assay type: cell-based; conditions: nutrient agar containing 5% 'chocolated' horse blood
Sercina lutea 8340 = assay: as above; assay type: cell-based; conditions: nutrient agar containing 5% 'chocolated' horse blood
E coli NCTC 10418 [13] = assay: MIC, veterinary bacteria; assay type: cell-based; conditions: veterinary bacteria (Table 2)
Strep agalactiae SPA1 = assay: MIC, veterinary bacteria; assay type: cell-based; conditions: veterinary bacteria (Table 2)
M. suipneumoniae JF 435 = assay: MIC, anti-mycoplasmal, Friis broth solidified with 0.9% agarose; assay type: cell-based; conditions: inoculum 10^3 to 10^5 C.F.U., 6 days incubation at 37°C
[14] = system: Corynebacterium zerosis 9755; assay: MIC, human bacteria, serial dilution in nutrient agar; assay type: cell-based; conditions: nutrient agar containing 5% 'chocolated' horse blood
Bord bronchiseptica BO8 = assay: MIC, veterinary bacteria; assay type: cell-based; conditions: veterinary bacteria (Table 2)
M. suipneumoniae MS 16 = assay: MIC, anti-mycoplasmal, Friis broth solidified with 0.9% agarose; assay type: cell-based; conditions: inoculum 10^3 to 10^5 C.F.U., 6 days incubation at 37°C
K aerogenes A = assay: MIC, human bacteria, serial dilution in nutrient agar; assay type: cell-based; conditions: nutrient agar containing 5% 'chocolated' horse blood
M. suipneumoniae TAM 6N = assay: MIC, anti-mycoplasmal, Friis broth solidified with 0.9% agarose; assay type: cell-based; conditions: inoculum 10^3 to 10^5 C.F.U., 6 days incubation at 37°C
M. suipneumoniae LABER = assay: as above; assay type: cell-based; conditions: inoculum 10^3 to 10^5 C.F.U., 6 days incubation at 37°C
Staph aureus W2827 = assay: MIC, human bacteria, serial dilution in nutrient agar; assay type: cell-based; conditions: nutrient agar containing 5% 'chocolated' horse blood
[15] = system: M. suipneumoniae NCTC 10110; assay: MIC, anti-mycoplasmal, Friis broth solidified with 0.9% agarose; assay type: cell-based; conditions: inoculum 10^3 to 10^5 C.F.U., 6 days incubation at 37°C
[16] = system: Erysipelothrix rhusiopathiae NCTC 8163; assay: MIC, veterinary bacteria; assay type: cell-based; conditions: veterinary bacteria (Table 2)
Strep dysgalaciae SPD1 = assay: MIC, veterinary bacteria; assay type: cell-based; conditions: veterinary bacteria (Table 2)
M. suipneumoniae Str. 11 = assay: MIC, anti-mycoplasmal, Friis broth solidified with 0.9% agarose; assay type: cell-based; conditions: inoculum 10^3 to 10^5 C.F.U., 6 days incubation at 37°C
Ps aeruginosa 10662 = assay: MIC, human bacteria, serial dilution in nutrient agar; assay type: cell-based; conditions: nutrient agar containing 5% 'chocolated' horse blood
M. hyorhinis ATCC 23234 = assay: MIC, anti-mycoplasmal, Friis broth solidified with 0.9% agarose; assay type: cell-based; conditions: inoculum 10^3 to 10^5 C.F.U., 6 days incubation at 37°C
[17] = system: Strep suis (group D) SPS11; assay: MIC, veterinary bacteria; assay type: cell-based; conditions: veterinary bacteria (Table 2)
M. pneumoniae ATCC 15492 = assay: MIC, anti-mycoplasmal, Friis broth solidified with 0.9% agarose; assay type: cell-based; conditions: inoculum 10^3 to 10^5 C.F.U., 6 days incubation at 37°C
Strep pyogenes C 2761 = assay: MIC, human bacteria, serial dilution in nutrient agar; assay type: cell-based; conditions: nutrient agar containing 5% 'chocolated' horse blood
[18] = system: M. hyosynoviae ATCC 25591; assay: MIC, anti-mycoplasmal, Friis broth solidified with 0.9% agarose; assay type: cell-based; conditions: inoculum 10^3 to 10^5 C.F.U., 6 days incubation at 37°C
M. gallisepticum S6 = assay: as above; assay type: cell-based; conditions: inoculum 10^3 to 10^5 C.F.U., 6 days incubation at 37°C
Staph aureus Oxford [19] = assay: MIC, veterinary bacteria; assay type: cell-based; conditions: veterinary bacteria (Table 2)

C^yclopentan-2-onyl monate A [Example 6]
MIC (E coli E1): >80 µg/mL | in vitro MIC (M. dispar NCTC 10125): 0.5 µg/mL | in vitro MIC [1]: 10 µg/mL | MIC [2]: 0.5 µm/ml | in vitro MIC (M. bovis NCTC 10131): 0.25 µg/mL | MIC [3]: >80 µg/mL | in vitro MIC (M. hyorhinis ATCC 25021): 2.5 µg/mL | in vitro MIC (M. suipneumoniae HK(2)): 10 µg/mL | in vitro MIC [4]: 0.25 µg/mL | MIC [5]: 1.0 µm/ml | MIC (P mirabilis 889): 100 µm/ml | MIC (Staph aureus Russell): 5.0 µm/ml | % bound to pig serum (pig serum): 35.6% | MIC (Strep pyogenes A 64/848): 2.5 µm/ml | MIC (Bord bronchisptica BO9): 20 µg/mL | in vitro MIC [6]: 2.5 µg/mL | MIC (Bacillus subtilis 6633): 2.5 µm/ml | MIC [7]: 2.5 µg/mL | MIC (Strep uberis SPU1): 1.25 µg/mL | MIC (S typhimurium S18): >80 µg/mL | MIC (Staph aureus Oxford [8]): 2.5 µm/ml | MIC (Past multocida PA2): .312 µg/mL | MIC (Strep faecalis I): >100 µm/ml | MIC (S dublin S7): >80 µg/mL | MIC (E coli ESS): 2.5 µm/ml | MIC [9]: ^a1.0 µm/ml | MIC [10]: 2.5 µg/mL | MIC (Past multocida PA1): .625 µg/mL | in vitro MIC (M. suipneumoniae NB12): 2.5 µg/mL | MIC (E coli NCTC 10418 [11]): >100 µm/ml | in vitro MIC [12]: 5.0 µg/mL | MIC (Past Haemolytica PA5): 5 µg/mL | in vitro MIC (M. suipneumoniae UCD 1): 10 µg/mL | MIC (Strep pyogenes B 2788): 5.0 µm/ml | MIC (Sercina lutea 8340): >100 µm/ml | MIC (E coli NCTC 10418 [13]): >80 µg/mL | MIC (Strep agalactiae SPA1): 2.5 µg/mL | in vitro MIC (M. suipneumoniae JF 435): 10 µg/mL | MIC [14]: >100 µm/ml | MIC (Bord bronchiseptica BO8): 80 µg/mL | in vitro MIC (M. suipneumoniae MS 16): 2.5 µg/mL | MIC (K aerogenes A): >100 µm/ml | in vitro MIC (M. suipneumoniae TAM 6N): 5.0 µg/mL | in vitro MIC (M. suipneumoniae LABER): 2.5 µg/mL | MIC (Staph aureus W2827): 5.0 µm/ml | in vitro MIC [15]: 10 µg/mL | MIC [16]: >80 µg/mL | MIC (Strep dysgalaciae SPD1): 1.25 µg/mL | in vitro MIC (M. suipneumoniae Str. 11): 2.5 µg/mL | MIC (Ps aeruginosa 10662): >100 µm/ml | in vitro MIC (M. hyorhinis ATCC 23234): 2.5 µg/mL | MIC [17]: 20 µg/mL | in vitro MIC (M. pneumoniae ATCC 15492): 10 µg/mL | MIC (Strep pyogenes C 2761): 5.0 µm/ml | in vitro MIC [18]: 2.5 µg/mL | in vitro MIC (M. gallisepticum S6): >10 µg/mL | MIC (Staph aureus Oxford [19]): 2.5 µg/mL

— patent EP0025288A1, “Derivatives of monic acid, processes for their preparation, compositions containing them and their preparation” (priority 1979, dated 1981)
